The source of these data is patent publication US8158628B2, “Sulfonylated 1,2,3,4-tetrahydropyrrolo[1,2-a]pyrazine compounds and their use as pharmaceuticals” (Gruenenthal GmbH, priority 2009, dated 2012).

One assay deals with T1, B1R of the rat (Rattus norvegicus, UniProt P97583).
T1 construct: expressed in transfected cells; host or cells: CHO K1 cells (Chinese hamster ovary), stably transfected
T1 sequence (P97583 1-337): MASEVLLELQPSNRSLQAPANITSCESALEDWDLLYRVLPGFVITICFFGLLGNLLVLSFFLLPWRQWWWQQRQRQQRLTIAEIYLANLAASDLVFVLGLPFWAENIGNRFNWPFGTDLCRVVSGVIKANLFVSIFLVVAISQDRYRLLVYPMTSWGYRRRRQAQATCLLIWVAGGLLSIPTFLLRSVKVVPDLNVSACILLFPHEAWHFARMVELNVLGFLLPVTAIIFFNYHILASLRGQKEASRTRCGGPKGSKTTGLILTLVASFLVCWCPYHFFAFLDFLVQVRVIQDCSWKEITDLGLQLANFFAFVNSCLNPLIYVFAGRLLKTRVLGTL
The assay is described as follows: FLIPR Ca2+ functional assay, B1R antagonism, rat B1R in CHO K1 cells. It is filed as cell-based. Particulars: test substance 10 μM; rB1R CHO K1 cells; agonist Des-Arg9 bradykinin at EC80; % of maximum achievable inhibition. The method in brief: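 Stably transfected CHO K1 cells loaded with Fluo-4; Ca2+ fluorescence read on FLIPR (ex 488/em 540 nm). Compound preincubated 10-20 min, then agonist at EC80: Lys-Des-Arg9 bradykinin (human) or Des-Arg9 bradykinin (rat). % inhibition vs maximal inhibition; IC50 from concentration series, n=2-3, N>=2.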

Another assay has as its target T2, human B1R (Homo sapiens, UniProt P46663).
T2 construct: expressed in transfected cells; host or cells: CHO K1 cells (Chinese hamster ovary), stably transfected
T2 sequence (P46663 1-353): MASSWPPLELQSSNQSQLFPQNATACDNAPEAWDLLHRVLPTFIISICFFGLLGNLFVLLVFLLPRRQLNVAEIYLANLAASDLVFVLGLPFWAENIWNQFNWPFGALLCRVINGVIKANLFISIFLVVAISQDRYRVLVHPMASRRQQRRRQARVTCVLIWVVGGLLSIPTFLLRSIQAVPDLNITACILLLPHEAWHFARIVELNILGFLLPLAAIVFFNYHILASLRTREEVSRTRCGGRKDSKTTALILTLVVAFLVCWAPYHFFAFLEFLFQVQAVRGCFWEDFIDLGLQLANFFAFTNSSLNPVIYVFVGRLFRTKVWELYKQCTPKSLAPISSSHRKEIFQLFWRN
The assay is described as follows: FLIPR Ca2+ functional assay, B1R antagonism, human B1R in CHO K1 cells. It is filed as cell-based. Particulars: test substance 10 μM; hB1R CHO K1 cells; agonist Lys-Des-Arg9 bradykinin at EC80; % of maximum achievable inhibition. Here is the method:
The agonistic or antagonistic action of substances on the bradykinin 1 receptor (B1R) of the human and rat species can be quantified with ectopically expressing cell lines (CHO K1 cells) and with the aid of a Ca^2+-sensitive dye (Fluo-4) using a fluorescent imaging plate reader (FLIPR). The value in % activation is based on the Ca^2+ signal after addition of Lys-Des-Arg^9 bradykinin (0.5 nM) or Des-Arg^9 bradykinin (100 nM). Antagonists lead to a suppression of the Ca^2+ influx following administration of the agonist. The % inhibition in comparison with the maximum achievable inhibition is indicated.
1. Functional Investigation on the Bradykinin 1 Receptor (B1R) The agonistic or antagonistic action of substances can be determined on the bradykinin 1 receptor (B1R) of the human and rat species with the following assay. According to this assay, the Ca^2+ inflow through the channel is quantified with the aid of a Ca^2+-sensitive dye (Fluo-4 type, Molecular Probes Europe BV, Leiden, Netherlands) in a fluorescent imaging plate reader (FLIPR, Molecular Devices, Sunnyvale, USA). 2. Method: Chinese hamster ovary cells (CHO K1 cells) which are stably transfected with the human B1R gene (hB1R cells) or the B1R gene of the rat (rB1R cells) are used. For functional investigations these cells are plated-out onto black 96-well plates with a clear base (BD Biosciences, Heidelberg, Germany or Greiner, Frickenhausen, Germany) in a density of 20,000-35,000 cells/well. Overnight the cells are incubated at 37° C. and 5% CO2 in culture medium (hB1R cells: Ham's Nutrient Mixture F12, Gibco Invitrogen GmbH, Karlsruhe, Germany or DMEM, Sigma-Aldrich, Taufkirchen, Germany; rB1R cells: D-MEM/F12, Gibco Invitrogen, Karlsruhe, Germany) with 10 vol. % FBS (foetal bovine serum, Gibco Invitrogen GmbH, Karlsruhe, Germany or PAN Biotech GmbH, Aidenbach, Germany).
On the following day the cells are loaded with 2.13 μM Fluo-4 (Molecular Probes Europe BV, Leiden, Netherlands) in HBSS buffer (Hank's buffered saline solution, Gibco Invitrogen GmbH, Karlsruhe, Germany) with 2.5 mM probenecid (Sigma-Aldrich, Taufkirchen, Germany) and 10 mM HEPES (Sigma-Aldrich, Taufkirchen, Germany) for 60 min at 37° C. The plates are subsequently washed twice with HBSS buffer, and HBSS buffer which additionally contains 0.1% BSA (bovine serum albumin; Sigma-Aldrich, Taufkirchen, Germany), 5.6 mM glucose and 0.05% gelatine (Merck KGaA, Darmstadt, Germany) is added. After a further incubation of 20 minutes at RT, the plates are inserted into the FLIPR for Ca^2+ measurement. Alternatively they are washed with buffer A (15 mM HEPES, 80 mM NaCl, 5 mM KCl, 1.2 mM CaCl2, 0.7 mM MgSO4, 2 g/l glucose, 2.5 mM probenecid) and loaded with buffer A with added 2.5 μM Fluo-4 and 0.025% Pluronic F127 (Sigma-Aldrich, Taufkirchen, Germany). The cells are then washed twice with buffer A and incubated for 30 minutes with buffer A, which additionally contains 0.05% BSA and 0.05% gelatine, at RT and then used for Ca^2+ measurement in the FLIPR. The Ca^2+-dependent fluorescence is measured here before and after addition of substances (λex=488 nm, λem=540 nm). The quantification is performed by measuring the highest fluorescence intensity (FC, fluorescence counts) over time.
The FLIPR protocol comprises two additions of substance. Test substances (10 μM) are first pipetted onto the cells and the Ca^2+ inflow is compared with the control (hB1R: Lys-Des-Arg^9 bradykinin >=50 nM; rB1R: Des-Arg^9 bradykinin 10 μM). The value in % activation based on the Ca^2+ signal after addition of Lys-Des-Arg^9 bradykinin (>=50 nM) or Des-Arg^9 bradykinin (10 μM) is obtained therefrom. After incubation for 10-20 minutes, Lys-Des-Arg^9 bradykinin (hB1R) or Des-Arg^9 bradykinin (rB1R) is applied in the EC80 concentration and the inflow of Ca^2+ is likewise determined.
Antagonists lead to a suppression of the Ca^2+ inflow. The % inhibition in comparison with the maximum achievable inhibition is calculated. […]

Consider `COc1cc(C)c(S(=O)(=O)N2CCn3cccc3C2CC(=O)N2CCN(C3CCN(C)CC3)CC2)c(C)c1` (stereo not drawn) [Example 1, 2-(2-(4-Methoxy-2,6-dimethylphenylsulfonyl)-1,2,3,4-tetrahydro-pyrrolo[1,2-a]pyrazin-1-yl)-1-(4-(1-methylpiperidin-4-yl)piperazin-1-yl)ethanone], for which the figures for the inhibition at 10 µM at B1R of the rat and at human B1R were 100% and 94.8%, respectively.
The corresponding values for `COc1cc(C)c(S(=O)(=O)N2CCn3cccc3C2COCC(=O)N2CCN(C3CCN(C)CC3)CC2)c(C)c1` (stereo not drawn) [Example 2, 2-((2-(4-Methoxy-2,6-dimethylphenylsulfonyl)-1,2,3,4-tetrahydropyrrolo[1,2-a]pyrazin-1-yl)methoxy)-1-(4-(1-methylpiperidin-4-yl)piperazin-1-yl)ethanone] are 98.9% and 99.9%.
As for `COc1cc(C)c(S(=O)(=O)N2CCn3cccc3C2CC(=O)N2CCC3(CCN(C4CC4)C3)C2)c(C)c1` (stereo not drawn) [Example 3, 1-(7-Cyclopropyl-2,7-diazaspiro[4.4]nonan-2-yl)-2-(2-(4-methoxy-2,6-dimethylphenylsulfonyl)-1,2,3,4-tetrahydropyrrolo[1,2-a]pyrazin-1-yl)ethanone], the inhibition at 10 µM at B1R of the rat was 58.8%; at human B1R it was 69.6%.
The corresponding values for `COc1cc(C)c(S(=O)(=O)N2CCn3cccc3C2COCC(=O)N2CCC3(CC2)CCN(c2ccncc2)C3)c(C)c1` (stereo not drawn) [Example 4, 2-((2-(4-Methoxy-2,6-dimethylphenylsulfonyl)-1,2,3,4-tetrahydropyrrolo[1,2-a]pyrazin-1-yl)methoxy)-1-(2-(pyridin-4-yl)-2,8-diazaspiro[4.5]decan-8-yl)ethanone] are 104% and 99.8%.
`O=C(COCC1c2cccn2CCN1S(=O)(=O)c1ccccc1C(F)(F)F)N1CCC(Oc2ccncc2)CC1` (stereo not drawn) [Example 5, 1-(4-(Pyridin-4-yloxy)piperidin-1-yl)-2-((2-(2-(trifluoromethyl)phenylsulfonyl)-1,2,3,4-tetrahydropyrrolo[1,2-a]pyrazin-1-yl)methoxy)ethanone]: the inhibition at 10 µM at B1R of the rat is 102%; at human B1R it was 99.8%.
The corresponding values for `Cc1cccc(Cl)c1S(=O)(=O)N1CCn2cccc2C1COCC(=O)N1CCC(Oc2ccncc2)CC1` (stereo not drawn) [Example 6, 2-((2-(2-Chloro-6-methylphenylsulfonyl)-1,2,3,4-tetrahydropyrrolo[1,2-a]pyrazin-1-yl)methoxy)-1-(4-(pyridin-4-yloxy)piperidin-1-yl)ethanone] are 100% and 99.6%.
The corresponding values for `COc1cc(C)c(S(=O)(=O)N2CCn3cccc3C2COCC(=O)N(C)CCC2CCN(c3ccncc3)CC2)c(C)c1` (stereo not drawn) [Example 7] are 102% and 99.9%.
The corresponding values for `COc1ccc2cc(S(=O)(=O)N3CCn4cccc4C3CC(=O)NC3CCc4cc(CN5CCCCC5)ccc4C3)ccc2c1` (stereo not drawn) [Example 8, 2-(2-(6-Methoxynaphthalen-2-ylsulfonyl)-1,2,3,4-tetrahydropyrrolo[1,2-a]pyrazin-1-yl)-N-(6-(piperidin-1-ylmethyl)-1,2,3,4-tetrahydronaphthalen-2-yl)acetamide] are 104% and 99.9%.
With `COc1ccc2cc(S(=O)(=O)N3CCn4cccc4C3CC(=O)N[C@@H]3CCCc4cc(CN5CCCCC5)ccc43)ccc2c1` (stereo partly drawn) [Example 9, 2-(2-(6-Methoxynaphthalen-2-ylsulfonyl)-1,2,3,4-tetrahydropyrrolo[1,2-a]pyrazin-1-yl)-N—((R)-6-(piperidin-1-ylmethyl)-1,2,3,4-tetrahydronaphthalen-1-yl)acetamide], the inhibition at 10 µM at B1R of the rat came out at 103%; at human B1R it was 99.5%.
